# pIC50, pKi: −log10 of the molar value.
# Legend:
# [1] = tested on: HT-29, K-562 and KG-1 cells; test: GTP pool depletion and repletion, and cell cycle block, in cell lines; type: cell-based, human
# Procedure: The present identification of relevant biomarkers was cognizant of the need to capture genes that move with respect to relevant clinical experiments. For example, IMPDH inhibition results in the cell cycle halting at the G1 border. […] Concentration depletion of GTP was measured in HT-29, K-562 and KG-1 cells. DMSO was used as control. […] For example, PDE7A and RRM2 were deregulated only on GTP repletion (which occurred within 90 minutes after drug removal). Thus, the present experiments have correlated gene involvement with the real biological endpoint for IMPDH inhibition.
# both IMPDH isozymes = conditions: cited from earlier work
# [2] = tested on: human peripheral lymphocytes stimulated with either B-cell or T-cell mitogens; conditions: cited from earlier work
compound,measurement,setting,value
CC[C@H](CC#N)OC(=O)N[C@@H](C)c1cccc(NC(=O)Nc2ccc(-c3cnco3)c(OC)c2)c1 [AVN-944],Effect on GTP pools,"[1]; HT-29, K-562 and KG-1 cells, DMSO control",depleted GTP pools
same,Time to GTP repletion after drug removal,[1]; after drug removal,≤ 90 min
same,Effect on cell cycle,[1]; at concentrations of AVN-944 that depleted GTP pools,S phase cell cycle block
same,pKi,both IMPDH isozymes,8.00 to 8.15
same,pIC50,[2],7.00 to 7.70

# Source: US20100015620A1, “CANCER-LINKED GENES AS BIOMARKERS TO MONITOR RESPONSE TO IMPDH INHIBITORS” (priority 2006, published 2010)
